Data: ChEMBL document CHEMBL4699540, “Discovery and structure activity relationships of 7-benzyl triazolopyridines as stable, selective, and reversible inhibitors of myeloperoxidase” (Bioorg Med Chem, 2020)

Tests used:
Cytochrome P450 2C8 = molecular target: T1, Cytochrome P450 2C8 (Homo sapiens, UniProt P10632); test: Inhibition of CYP2C8 (unknown origin); type: ADME
T1 sequence (P10632 whole entry): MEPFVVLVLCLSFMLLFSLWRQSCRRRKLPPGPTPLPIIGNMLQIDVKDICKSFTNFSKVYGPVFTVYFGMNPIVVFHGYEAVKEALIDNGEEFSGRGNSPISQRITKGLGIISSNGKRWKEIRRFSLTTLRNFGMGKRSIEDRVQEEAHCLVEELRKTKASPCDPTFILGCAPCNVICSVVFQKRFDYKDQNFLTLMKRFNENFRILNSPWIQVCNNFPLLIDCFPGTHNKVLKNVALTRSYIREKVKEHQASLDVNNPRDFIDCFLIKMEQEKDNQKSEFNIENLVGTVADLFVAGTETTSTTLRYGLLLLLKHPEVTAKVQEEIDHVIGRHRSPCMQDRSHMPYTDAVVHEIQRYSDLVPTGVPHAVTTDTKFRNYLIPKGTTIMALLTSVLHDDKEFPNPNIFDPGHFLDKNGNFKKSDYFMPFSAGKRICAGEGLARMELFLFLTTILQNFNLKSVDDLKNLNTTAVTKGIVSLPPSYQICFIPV

[1] = Plasma concentration in human MPO transgenic thioglycollate-induced peritonitis mouse model at 10 mg/kg, po measured after 6 hrs by LC/MS analysis; type: ADME, organism-based
[2] = Half life in CD-1 mouse at 3 mg/kg, po by LC/MS analysis; type: ADME, organism-based; conditions: in vivo
[3] = Permeability of compound at pH 7.4 by PAMPA assay; type: ADME; conditions: read-out: permeability
Thyroid peroxidase = molecular target: T2, Thyroid peroxidase (Homo sapiens, UniProt P07202); test: Inhibition of TPO (unknown origin) using 3-iodo tyrosine as substrate incubated for 10 mins
T2 sequence (P07202 whole entry): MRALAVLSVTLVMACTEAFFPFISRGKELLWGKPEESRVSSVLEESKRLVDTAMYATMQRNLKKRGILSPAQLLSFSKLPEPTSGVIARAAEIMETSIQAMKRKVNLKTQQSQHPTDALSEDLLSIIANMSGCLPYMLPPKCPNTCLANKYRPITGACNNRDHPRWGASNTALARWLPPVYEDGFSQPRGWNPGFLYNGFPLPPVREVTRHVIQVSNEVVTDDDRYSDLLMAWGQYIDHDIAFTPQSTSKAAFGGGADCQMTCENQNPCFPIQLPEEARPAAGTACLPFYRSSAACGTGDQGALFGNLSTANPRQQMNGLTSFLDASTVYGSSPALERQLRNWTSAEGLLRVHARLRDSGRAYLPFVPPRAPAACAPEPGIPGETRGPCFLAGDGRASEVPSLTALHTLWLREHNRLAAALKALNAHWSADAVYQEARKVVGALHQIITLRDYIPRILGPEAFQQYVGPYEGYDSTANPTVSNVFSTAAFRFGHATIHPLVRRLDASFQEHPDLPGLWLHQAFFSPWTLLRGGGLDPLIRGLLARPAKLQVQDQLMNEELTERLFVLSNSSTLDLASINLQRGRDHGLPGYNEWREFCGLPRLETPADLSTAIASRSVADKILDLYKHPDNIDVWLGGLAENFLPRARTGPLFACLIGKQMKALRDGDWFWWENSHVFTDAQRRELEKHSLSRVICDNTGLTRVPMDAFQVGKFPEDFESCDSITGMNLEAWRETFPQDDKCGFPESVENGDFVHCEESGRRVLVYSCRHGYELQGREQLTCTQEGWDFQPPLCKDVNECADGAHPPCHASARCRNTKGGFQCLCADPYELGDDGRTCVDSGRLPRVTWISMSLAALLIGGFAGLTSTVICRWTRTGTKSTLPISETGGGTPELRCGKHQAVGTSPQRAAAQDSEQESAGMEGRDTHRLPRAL

[4] = Stability of compound at pH 1 assessed as half life; type: physicochemical; conditions: buffer
[5] = Metabolic stability in rat liver microsomes assessed as compound remaining; type: ADME, Microsome
Eosinophil peroxidase = molecular target: T3, Eosinophil peroxidase (Homo sapiens, UniProt P11678); test: Inhibition of human EPX bromination activity using tyrosine as substrate by measuring 3-bromo tyrosine formation incubated for 10 mins
T3 sequence (P11678 whole entry): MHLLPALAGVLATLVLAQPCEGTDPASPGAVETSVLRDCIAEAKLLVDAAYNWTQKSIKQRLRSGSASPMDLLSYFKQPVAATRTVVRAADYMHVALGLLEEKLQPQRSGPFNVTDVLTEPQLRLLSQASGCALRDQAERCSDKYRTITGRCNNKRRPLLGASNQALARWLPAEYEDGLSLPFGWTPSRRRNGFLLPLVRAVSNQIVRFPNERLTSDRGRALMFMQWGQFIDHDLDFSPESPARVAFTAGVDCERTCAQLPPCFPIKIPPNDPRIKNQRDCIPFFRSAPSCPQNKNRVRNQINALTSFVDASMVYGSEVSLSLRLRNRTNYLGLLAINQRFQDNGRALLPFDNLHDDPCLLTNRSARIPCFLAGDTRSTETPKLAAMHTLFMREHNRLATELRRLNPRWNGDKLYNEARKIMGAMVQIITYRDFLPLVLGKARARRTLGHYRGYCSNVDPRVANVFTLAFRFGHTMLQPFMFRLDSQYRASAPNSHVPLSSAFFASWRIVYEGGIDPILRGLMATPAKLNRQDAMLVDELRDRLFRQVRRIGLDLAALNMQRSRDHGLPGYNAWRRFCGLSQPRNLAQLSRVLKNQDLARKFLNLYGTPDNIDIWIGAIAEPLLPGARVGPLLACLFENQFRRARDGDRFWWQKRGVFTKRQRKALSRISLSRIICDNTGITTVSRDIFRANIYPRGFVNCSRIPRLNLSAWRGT

Cytochrome P450 3A4 = Cytochrome P450 3A4 (Homo sapiens, UniProt P08684); test: Inhibition of CYP3A4 (unknown origin); type: ADME
Chain of Cytochrome P450 3A4 (P08684 whole entry): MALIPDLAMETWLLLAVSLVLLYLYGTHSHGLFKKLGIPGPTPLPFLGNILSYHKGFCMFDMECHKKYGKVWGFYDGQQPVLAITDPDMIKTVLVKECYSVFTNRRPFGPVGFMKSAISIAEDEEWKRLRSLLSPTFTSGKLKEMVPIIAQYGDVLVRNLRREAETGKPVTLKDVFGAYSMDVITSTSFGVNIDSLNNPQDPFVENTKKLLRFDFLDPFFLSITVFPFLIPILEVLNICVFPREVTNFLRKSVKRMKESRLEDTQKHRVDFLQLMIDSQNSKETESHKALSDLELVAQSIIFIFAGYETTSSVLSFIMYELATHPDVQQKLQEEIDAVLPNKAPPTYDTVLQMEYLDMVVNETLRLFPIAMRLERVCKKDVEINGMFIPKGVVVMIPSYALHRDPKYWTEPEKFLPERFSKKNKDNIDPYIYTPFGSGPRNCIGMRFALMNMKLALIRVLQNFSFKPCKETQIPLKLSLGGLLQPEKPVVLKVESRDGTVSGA

[6] = molecular target: T4, Methylated-DNA--protein-cysteine methyltransferase (Homo sapiens, UniProt P16455); test: Inhibition of human MGMT using 06-benzylguanine as substrate incubated for 30 mins by LC/MS analysis; conditions: 0.5 h
T4 sequence (P16455 whole entry): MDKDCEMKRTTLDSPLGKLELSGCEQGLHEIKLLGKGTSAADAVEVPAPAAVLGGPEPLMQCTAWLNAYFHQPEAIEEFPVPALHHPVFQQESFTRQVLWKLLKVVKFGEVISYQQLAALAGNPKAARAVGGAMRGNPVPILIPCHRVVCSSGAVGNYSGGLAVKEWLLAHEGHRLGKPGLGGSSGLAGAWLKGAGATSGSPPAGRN

[7] = Permeability of compound at pH 5.5 by PAMPA assay; type: ADME; conditions: read-out: permeability
[8] = Protein binding in mouse plasma assessed as free fraction; type: ADME, cell-free
[9] = Protein binding in human plasma assessed as free fraction; type: ADME, cell-free
[10] = Dissociation constant, pKa of the compound; type: physicochemical
[11] = Metabolic stability in human liver microsomes assessed as compound remaining; type: ADME, Microsome
[12] = Metabolic stability in mouse liver microsomes assessed as compound remaining; type: ADME, Microsome
animal or person = conditions: Mus musculus, po, 6 h, read-out: INH

SMILES: Nc1cc(Cc2ccccc2)c2nn[nH]c2n1
- IC50 (Cytochrome P450 2C8): > 10 µM
- concentration at 6 h [1]: 7 µM
- half-life [2]: 2 h
- Papp [3]: 31.3 ×10⁻⁶ cm/s
- IC50 (Thyroid peroxidase): 2.2 µM
- half-life [4]: > 100 h
- Stabilty [5]: 86%
- IC50 (Eosinophil peroxidase): 0.032 µM
- IC50 (Cytochrome P450 3A4): 6.6 µM
- inhibition (INH) [6]: Not Active
- Papp [7]: 42.7 ×10⁻⁶ cm/s
- fraction unbound [8]: 0.36
- fraction unbound [9]: 0.17
- pKa [10]: 7.4
- Stabilty [11]: 98%
- Stabilty [12]: 39%
- inhibition in vivo at 30 mg/kg (animal or person): 55%
